Measured values: ChEMBL document CHEMBL3108668, “Antitumor activity of jujuboside B and the underlying mechanism via induction of apoptosis and autophagy” (J Nat Prod, 2014)

Test system: AGS
Test: Induction of apoptosis in human AGS cells assessed as necrotic cells at 150 uM after 24 hrs by annexin V-FITC/propidium iodide staining-based flow cytometry (reference value: 0.12%)
Type: functional

CC(C)=C[C@H]1C[C@](C)(O)[C@@H]2[C@H]3CC[C@@H]4[C@@]5(C)CC[C@H](O[C@@H]6OC[C@H](O)[C@H](O[C@@H]7O[C@H](CO)[C@@H](O)[C@H](O)[C@H]7O[C@@H]7OC[C@@H](O)[C@H](O)[C@H]7O)[C@H]6O[C@@H]6O[C@@H](C)[C@H](O)[C@@H](O)[C@H]6O)C(C)(C)[C@@H]5CC[C@@]4(C)[C@@]34CO[C@@]2(C4)O1
Activity: 1.57%
